Source: US20210254056A1, “IDENTIFICATION AND TARGETED MODULATION OF GENE SIGNALING NETWORKS” (CAMP4 THERAPEUTICS CORPORATION, priority 2017, published 2021)

Test system: hepatocytes
Experiment: RNA-seq of hepatocytes treated with Phase III failure compounds
Experimental: RNA-seq was performed to determine the effects of the compounds on hepatocytes.
Significance was determined by the criteria of FPKM≥0.5, a log 2(fold-change)≥1, and a […].

## COc1cc2nccc(Oc3ccc(NC(=O)Nc4cc(C)on4)c(Cl)c3)c2cc1OC [Tivozanib]
  RNA-seq results, CYP2B6 expression: 0.16
  RNA-seq results, CYP2C19 expression: −1.36
  RNA-seq results, CYP2D6 expression: 0.21
  RNA-seq results, CYP3A4 expression: 0.50
  RNA-seq results, CYP7B1 expression: −1.02
  RNA-seq results, CYP39A1 expression: 0.94
  RNA-seq results: CYP2B6 expression: 0.24
  RNA-seq results: CYP2C19 expression: 0.27
  RNA-seq results: CYP2D6 expression: −0.3
  RNA-seq results: CYP3A4 expression: 0.18
  RNA-seq results: CYP7B1 expression: −0.17
  RNA-seq results: CYP39A1 expression: 0.06
RNA-seq, q≤0.05, hepatocytes, genes in the value or listed in the block
  significant modulation of expression of disease genes: significantly (q≤0.05) modulate expression
RNA-seq, hepatocytes
  effect on disease gene expression: effect on expression of too many disease genes
Gene A1BG, hepatocytes
  RNA-seq results: A1BG expression: 0.51
Gene AGTR1, hepatocytes
  RNA-seq results: AGTR1 expression: −0.47
Gene AGXT, hepatocytes
  RNA-seq results: AGXT expression: 0.04
Gene AHI1, hepatocytes
  RNA-seq results: AHI1 expression: 0.24
Gene AMPD3, hepatocytes
  RNA-seq results: AMPD3 expression: −0.18
Gene AMT, hepatocytes
  RNA-seq results: AMT expression: 0.50
Gene ANGPTL3, hepatocytes
  RNA-seq results: ANGPTL3 expression: −1.56
Gene ANKS4B, hepatocytes
  RNA-seq results: ANKS4B expression: −0.68
Gene ANKS6, hepatocytes
  RNA-seq results: ANKS6 expression: −0.21
Gene ANPEP, hepatocytes
  RNA-seq results: ANPEP expression: −1.04
Gene AOC2, hepatocytes
  RNA-seq results: AOC2 expression: −0.20
Gene APOA2, hepatocytes
  RNA-seq results: APOA2 expression: 0.31
Gene APOA5, hepatocytes
  RNA-seq results: APOA5 expression: −0.09
Gene APOB, hepatocytes
  RNA-seq results: APOB expression: −0.40
Gene COG5, hepatocytes
  RNA-seq results: COG5 expression: −0.02
Gene COG6, hepatocytes
  RNA-seq results: COG6 expression: −0.09
Gene COL1A1, hepatocytes
  RNA-seq results: COL1A1 expression: −0.35
Gene COX6A1, hepatocytes
  RNA-seq results: COX6A1 expression: −0.05
Gene CP, hepatocytes
  RNA-seq results: CP expression: 0.36
Gene CPS1, hepatocytes
  RNA-seq results: CPS1 expression: 0.2
Gene CPT1A, hepatocytes
  RNA-seq results: CPT1A expression: 0.08
Gene CPT2, hepatocytes
  RNA-seq results: CPT2 expression: 0.07
Gene CROT, hepatocytes
  RNA-seq results: CROT expression: −0.02
Gene CSPP1, hepatocytes
  RNA-seq results: CSPP1 expression: 0.35
Gene CTC1, hepatocytes
  RNA-seq results: CTC1 expression: −0.04
Gene CTDSP2, hepatocytes
  RNA-seq results: CTDSP2 expression: 0
Gene CTH, hepatocytes
  RNA-seq results: CTH expression: 0.11
Gene CTNS, hepatocytes
  RNA-seq results: CTNS expression: −0.16
Gene CTSF, hepatocytes
  RNA-seq results: CTSF expression: −0.1
Gene CTSK, hepatocytes
  RNA-seq results: CTSK expression: 0.32
Gene CYB5A, hepatocytes
  RNA-seq results: CYB5A expression: 0.09
Gene CYB5R3, hepatocytes
  RNA-seq results: CYB5R3 expression: −0.25
Gene CYP27A1, hepatocytes
  RNA-seq results: CYP27A1 expression: 0.02
Gene DAO, hepatocytes
  RNA-seq results: DAO expression: 0.02
Gene DBT, hepatocytes
  RNA-seq results: DBT expression: 0.18
Gene DCDC2, hepatocytes
  RNA-seq results: DCDC2 expression: 0.25
Gene DCXR, hepatocytes
  RNA-seq results: DCXR expression: −0.35
Gene FABP1, hepatocytes
  RNA-seq results: FABP1 expression: 0.25
Gene FADD, hepatocytes
  RNA-seq results: FADD expression: −0.32
Gene FAM111A, hepatocytes
  RNA-seq results: FAM111A expression: 0.18
Gene FAM111B, hepatocytes
  RNA-seq results: FAM111B expression: 0.01
Gene FAN1, hepatocytes
  RNA-seq results: FAN1 expression: 0.06
Gene FARS2, hepatocytes
  RNA-seq results: FARS2 expression: −0.06
Gene FASLG, hepatocytes
  RNA-seq results: FASLG expression: −0.16
Gene FGA, hepatocytes
  RNA-seq results: FGA expression: 0.15
Gene FGD1, hepatocytes
  RNA-seq results: FGD1 expression: −0.42
Gene FGFR2, hepatocytes
  RNA-seq results: FGFR2 expression: 0.36
Gene FIG4, hepatocytes
  RNA-seq results: FIG4 expression: 0.29
Gene FIS1, hepatocytes
  RNA-seq results: FIS1 expression: 0.01
Gene FTCD, hepatocytes
  RNA-seq results: FTCD expression: −0.28
Gene FTH1, hepatocytes
  RNA-seq results: FTH1 expression: −0.33
Gene FUCA1, hepatocytes
  RNA-seq results: FUCA1 expression: 0.06
Gene FXN, hepatocytes
  RNA-seq results: FXN expression: −0.37
Gene G6PC3, hepatocytes
  RNA-seq results: G6PC3 expression: −0.21
Gene G6PC, hepatocytes
  RNA-seq results: G6PC expression: −0.01
Gene G6PD, hepatocytes
  RNA-seq results: G6PD expression: −0.09
Gene GALK1, hepatocytes
  RNA-seq results: GALK1 expression: −0.45
Gene GALK2, hepatocytes
  RNA-seq results: GALK2 expression: −0.06
Gene GALT, hepatocytes
  RNA-seq results: GALT expression: 0
Gene GATA6, hepatocytes
  RNA-seq results: GATA6 expression: −0.71
Gene GATM, hepatocytes
  RNA-seq results: GATM expression: −0.01
Gene GBA, hepatocytes
  RNA-seq results: GBA expression: 0.02
Gene GBE1, hepatocytes
  RNA-seq results: GBE1 expression: −0.06
Gene GCH1, hepatocytes
  RNA-seq results: GCH1 expression: −0.12
Gene GCKR, hepatocytes
  RNA-seq results: GCKR expression: 0.14
Gene GCLC, hepatocytes
  RNA-seq results: GCLC expression: −0.06
Gene GOSH, hepatocytes
  RNA-seq results: GOSH expression: −1.23
Gene RRM2B, hepatocytes
  RNA-seq results: RRM2B: −0.32
Gene RSAD1, hepatocytes
  RNA-seq results: RSAD1: 0.01
Gene SAMHD1, hepatocytes
  RNA-seq results: SAMHD1: −1.92
Gene SC5D, hepatocytes
  RNA-seq results: SC5D: 0.47
Gene SCARB1, hepatocytes
  RNA-seq results: SCARB1: −0.67
Gene SCN9A, hepatocytes
  RNA-seq results: SCN9A: −0.32
Gene SDCCAG8, hepatocytes
  RNA-seq results: SDCCAG8: −0.50
Gene SEPN1, hepatocytes
  RNA-seq results: SEPN1: −1.37
Gene SERAC1, hepatocytes
  RNA-seq results: SERAC1: −0.31
Gene SERPINA1, hepatocytes
  RNA-seq results: SERPINA1: 0.12
Gene SERPING1, hepatocytes
  RNA-seq results: SERPING1: 0.14
Gene SERPINI1, hepatocytes
  RNA-seq results: SERPINI1: −0.06
Gene SETBP1, hepatocytes
  RNA-seq results: SETBP1: −0.38
Gene SFXN4, hepatocytes
  RNA-seq results: SFXN4: 0.25
Gene SLC10A1, hepatocytes
  RNA-seq results: SLC10A1: −0.16
Gene SLC10A3, hepatocytes
  RNA-seq results: SLC10A3: −0.82
Gene SLC10A5, hepatocytes
  RNA-seq results: SLC10A5: −1.06
Gene SLC10A7, hepatocytes
  RNA-seq results: SLC10A7: −0.12
Gene SLC11A2, hepatocytes
  RNA-seq results: SLC11A2: −0.44
Gene SLC19A1, hepatocytes
  RNA-seq results: SLC19A1: −0.33
Gene SLC19A2, hepatocytes
  RNA-seq results: SLC19A2: −0.15
Gene SLC19A3, hepatocytes
  RNA-seq results: SLC19A3: −0.16
Gene SLC22A1, hepatocytes
  RNA-seq results: SLC22A1: 0.24
Gene SLC22A5, hepatocytes
  RNA-seq results: SLC22A5: −0.38
Gene SLC25A1, hepatocytes
  RNA-seq results: SLC25A1: −0.61
Gene SLC25A10, hepatocytes
  RNA-seq results: SLC25A10: −0.64
Gene SLC25A12, hepatocytes
  RNA-seq results: SLC25A12: −0.97
Gene SLC25A13, hepatocytes
  RNA-seq results: SLC25A13: −0.53
Gene SLC25A15, hepatocytes
  RNA-seq results: SLC25A15: −0.18
Gene SLC25A19, hepatocytes
  RNA-seq results: SLC25A19: −0.47
Gene SLC25A20, hepatocytes
  RNA-seq results: SLC25A20: −1.32
Gene SLC25A29, hepatocytes
  RNA-seq results: SLC25A29: −0.54
Gene SLC25A32, hepatocytes
  RNA-seq results: SLC25A32: −0.47
